pIC50: −log10 of the molar value.
Columns and labels:
GR complex = assay: modulation of [35S]TBPS binding in rat cerebral cortex P2 homogenate; design: species or system Sprague-Dawley rats; IMAX: unit not given here; conditions: for pIC50: concentration of compounds to inhibit 50% of control [35S]TBPS binding, 2 nM [35S]TBPS, 25°C, 90 minutes; for IMAX: maximum inhibition of [35S]TBPS binding, I* = Inactive
Experimental: We performed several experiments to determine the nature of the modulation of [^35S]TBPS as affected by the compounds of the invention.
These procedures were performed as follows:
Brains from male Sprague-Dawley rats were removed immediately following sacrifice and the cerebral cortices dissected over ice. […] Briefly, the cortices were gently homogenized in 0.32 M sucrose followed by centrifugation at 1000 x g for 10 minutes. The supernatant was collected and centrifuged at 9000 x g for 20 minutes. The resultant P2 pellet was suspended as a 10% (original wet weight/volume) suspension in 50 mM Na/K phosphate buffer (pH 7.4) 200 mM NaCI to form the homogenate.
One hundred microliter […] aliquots of the P2 homogenate (0.5 milligrams (mg) protein) were incubated with 2 nanomolar (nM) [^35S]TBPS (70-110 curies/millimole;, New England Nuclear, Boston, MA) in the presence or absence of the naturally occurring steroids or their synthetic derivatives to be tested. The tested compounds were dissolved in dimethylsulfoxide (Baker Chem. Co., Phillipsbury, NJ) and added to the incubation mixture in 5 µL aliquots. The incubation mixture was brought to a final volume of 1 mL with buffer. Nonspecific binding was defined as binding in the presence of […]. The effect and specificity of GABA (Sigma Chem. Co., St. Louis, MO) was evaluated by performing all assays in the presence of GABA plus (+)bicuculline (Sigma Chem. Co.). Incubations maintained at 25°C for 90 minutes (steady state conditions) were terminated by rapid filtration through glass fiber filters (No. 32, Schleicher and Schuell, Keene, NH). Filter-bound radioactivity was quantitated by liquid scintillation spectrophotometry.
Various compounds were screened to determine their potential as modulators of [^35S]TBPS binding in vitro. These assays were performed in accordance with the above discussed procedures. […] It is an indication of a compound's in vitro potency. Maximum inhibition is an indication of a compound's in vitro efficacy.

rats = assay: Geller-Seifter conflict test; format: in vivo, Sprague-Dawley rats
Description: This animal model of human anxiety utilizes a conditioned state of conflict in rats to ascertain the anxiolytic properties of drugs. Rats are conditioned to bar press for positive reinforcement under two schedules of behavior (Geller and Seifter, Psychopharmacologia 1:482-492 (1960)). The first includes bar pressing under a […] schedule without punishment. The second component is a fixed ratio schedule with each bar press resulting in a positive reinforcement and a punishment. The punished component produces a state of conflict within the animal. […] An anxiolytic response would increase the punished responding without affecting the unpunished responding.
Male albino Sprague-Dawley rats (Charles River Labs, Wilmington, MA) weighing 250-300 g were used for conflict experiments and were kept on a restricted diet of Purina Lab Chow food pellets with water available at all times to maintain body weight at 85% of their free-feeding young adult levels. Rats were housed individually under a 12-hour light-dark cycle with lights on from 0700-1900.
The anti-anxiety (punishment-lessening) and response depressant effects of […] and […] were measured in rats by the conflict test of Geller and Seifter (1960). In this 63-min test, hungry rats perform a lever-press response to obtain a sweetened milk reward. The reinforcement schedule consists of punishment and nonpunishment components, alternating approximately every 15 min. Rats were trained in test chambers (Coulbourn instruments) with a lever mounted in one wall, a small dipper that delivered the 0.1-mL milk reward (1 part Eagle condensed : milk 2 parts water), and a metal grid floor through which the foot-shock punishment was administered. A DEC PDP 11/73 minicomputer running SKED (State Systems) was used for programming and recording.
Rates initially learned to respond on a continuous reinforcement schedule and progressed rapidly to 30-sec, 1-min, and 2-min variable interval (VI) schedules. On the continuous reinforcement schedule, rats received milk reward following every lever press; on the VI schedules, milk rewards were available at infrequent and variable intervals, eventually at an average of once every 2 min. Four 3-min "conflict" periods were then introduced on the unpunished VI baseline; the first started after 3 min of VI performance and the others were alternated between 12-min periods of VI responding. During conflict periods, which were signalled by the presentation of a light and a tone, the continuous reinforcement schedule was again in force and each lever press delivered both a milk reward and a brief ([…]) foot-shock punishment. Shock intensity was 0.2 mA initially, and.was increased daily in increments of 0.02 mA in order to gradually suppress lever pressing to 5 responses or less per conflict period. This training took 4-6 weeks, after which stable low rates of response were observed during conflict periods and stable high rates in the nonpunishment periods. Drug-induced increases in the rate of punished responses were taken as an index of antianxiety activity, while decreases in the rate of unpunished responses were taken as an index of response depression or sedation.

mice = assay: elevated plus-maze; format: in vivo, N.I.H. Swiss-Webster mice; conditions: IP
Description: The theoretical basis for the elevated plus-maze test is similar to that of the light/dark transition test. As described by Pellow et al., J. Neurosci. Meth 14:149-167 (1985), the elevated plus-maze apparatus is designed to utilize the mice's natural aversion to open spaces. The apparatus consists of two open-arms and two enclosed-arms. The elevated plus-maze test allows for two measures of anxiety, the number of entries into the open-arms and the time spent on the open-arms, both expressed as a percentage of the total number of entries and time spent in/on both the open-arms and enclosed-arms.
Male N.I.H. Swiss-Webster mice (Harlan, Indianapolis, IN) weighing 15-20 g were housed four per cage in polyethylene cages with sawdust bedding. The colony room was environmentally controlled (22°C) with a 12 hr light/dark cycle (0600-1800 hr). Food and water were available ad libitum, except during testing. The experiments were run from 0700-1500 hr and groups were counterbalanced for time of day effects. Mice were only administered drug or vehicle once.
The method used was previously described (Lister, Psychopharmacol. 92:180-185 (1987)). The apparatus included two open arms perpendicular to two enclosed arms elevated 50 cm from the floor. Each arm was 50 cm long and the walls of the enclosed arms were 40 cm tall. The maze was made completely of black plexiglass. Incandescent 200 W light bulbs were above each of the open arms to produce a strong contrast between the open arms and the enclosed arms.
Ten minutes after an injection, the N.I.H. Swiss-Webster mice were placed in the center of the plus-maze facing an open arm. During the 5 min test period, the number of entries onto the open arms and the enclosed arms, and the time spent in the open arms and enclosed arms were measured. All four paws had to be within an arm for the dependent variable to be measured. Therefore, the time spent in the center of the maze is not counted, so the total time spent in the open arms and the enclosed arms may not equal 5 min. […]

[1] = system: metrazol induced convulsions; assay: animal or person; format: in vivo, mice; conditions: IP, 10 mg/kg
Experimental: Experiments were also performed to determine the physiological relevance of neuroactive steroid and GABA receptor interactions by assessing the ability of the compounds of and used in the invention to prevent metrazol induced convulsions in mice. […] The time to onset of myoclonus (presence of forelimb clonic activity) induced by metrazol was determined by observing each mouse for a period of 30 minutes. […]
The anticonvulsant tests are similar to that described above. […] The number of animals with tonic and/or clonic convulsions was recorded. In the maximal electroshock test, 50 mA of current at 60 Hz was delivered through corneal electrodes for 200 msec to induce tonic seizure. The ability of compounds to abolish the tonic component was defined as the endpoint. General CNS depression potential was determined by a rotorod test 10 minutes after the injection of compounds where the number of mice staying on a rotating (6 rpm) rod for 1 minute in one of the three trials was determined. […]

[2] = 50% hpbcd, 10 minutes prior to metrazol (85 mg/kg)

C[C@]12CC[C@](O)(C(F)(F)F)C[C@H]1CC[C@@H]1[C@@H]2CC[C@]2(C)[C@@H](C(=O)CO)CC[C@@H]12 [3α,21 Dihydroxy-3β-trifluoromethyl-5β-pregnan-20-one]
pIC50 (GR complex; no unit printed): 6.45 | IMAX (GR complex): 102 | Geller/Seifter (% of control) (rats; sc, 50% hpbcd, 16 mg/kg): 982.4 % of control | % Control (mice; 50% hpbcd, 10 mg/kg): 237% | % Protected [1, 2]: 50%

CC(=O)OCC(=O)[C@H]1CC[C@H]2[C@@H]3CC[C@@H]4C[C@@](O)(C(F)(F)F)CC[C@]4(C)[C@H]3CC[C@]12C [3α,21-Dihydroxy-3β-trifluoromethyl-5β-pregnan-20-one, 21-acetate]
pIC50 (GR complex; no unit printed): 6.43 | IMAX (GR complex): 88 | Geller/Seifter (% of control) (rats; sc, 50% hpbcd, 8 mg/kg): 882.8 % of control | % Control (mice; 50% hpbcd, 5 mg/kg): 143.3% | % Protected [1, 2]: 62.5%

C[C@]12CC[C@](O)(C(F)(F)F)C[C@H]1CC[C@@H]1[C@@H]2CC[C@]2(C)[C@@H](C(=O)COC(=O)CCC(=O)[O-])CC[C@@H]12.[Na+] [3α,21-Dihydroxy-3β-trifluoromethyl-5β-pregnan-20-one, 21-hemisuccinate, sodium salt]
pIC50 (GR complex; unit inferred, sodium salt): 6.15 | IMAX (GR complex): 99 | Geller/Seifter (% of control) (rats; po, water, 8 mg/kg): 840.0 % of control | % Control (mice; water, 20 mg/kg): 172.8% | % Protected ([1]; water): 62.5%

C#C[C@@]1(O)CC[C@@]2(C)[C@H](CC[C@@H]3[C@@H]2CC[C@]2(C)[C@@H](C(=O)COC(=O)CCC(=O)O)CC[C@@H]32)C1 [3α,21-dihydroxy-3β-ethynyl-5β-pregnan-20-one 21 hemisuccinat] [3α,21-dihydroxy-3β-ethynyl-5β-pregnan-20-one 21 hemisuccinate]
IMAX (GR complex): 82 | Geller/Seifter (% of control) (rats; po, water, 16 mg/kg): 1350.0 % of control | % Control (mice; 50% hpbcd, 10 mg/kg): 164.2% | % Protected ([1]; water): 50%

CC1([C@H]2CC[C@H]3[C@@H]4CC[C@H]5C[C@](C)(O)CC[C@]5(C)[C@H]4CC[C@]23C)NC(C(=O)O)CS1 (stereo partly drawn) [3α-Hydroxy-3β-methyl-5α-pregnane-20-spiro-2'-(1'3'-thiazolidine-4'-carboxylic acid)]
Geller/Seifter (% of control) (rats; sc, 50% hpbcd, 16 mg/kg): 900.0 % of control

CC=C1CCC2C3CCC4CC(O)(C(F)(F)F)CCC4C3CCC12C (stereo not drawn) [3α-Hydroxy-3β-trifluoromethyl-5β-19-norpregn-17(20)(Z)-ene]
Geller/Seifter (% of control) (rats; sc, 50% hpbcd, 16 mg/kg): 1130.3 % of control | % Protected [1, 2]: 25%

CC(=O)[C@H]1CC[C@H]2[C@@H]3CC[C@@H]4C[C@@](O)(C(F)(F)F)CC[C@]4(C)[C@H]3C=C[C@]12C [3α-Hydroxy-3β-trifluoromethyl-5β-pregn-11-en-20-one]
pIC50 (GR complex; no unit printed): 6.69 | IMAX (GR complex): 99 | Geller/Seifter (% of control) (rats; sc, 50% hpbcd, 4 mg/kg): 508.3 % of control

C=C(C)C#C[C@@]1(O)CC[C@@]2(C)[C@H](CC[C@@H]3[C@@H]2CC[C@]2(C)[C@@H](C(C)=O)CC[C@@H]32)C1 [3α-hydroxy-3β-(3'-methyl-but-3'-en-1'-ynyl)-5β-pregnan-20-one]
pIC50 (GR complex; no unit printed): 7.62 | IMAX (GR complex): 91 | % Control (mice; 50% hpbcd, 10 mg/kg): 155% | % Protected [1, 2]: 100%

CC(=O)[C@H]1CC[C@H]2[C@@H]3CC[C@H]4C[C@@](O)(C(F)(F)F)CC[C@@H]4[C@H]3CC[C@]12C [3β-Trifluoromethyl-3α-hydroxy-5α-19-norpregnan-20-one]
pIC50 (GR complex; no unit printed): 6.60 | IMAX (GR complex): 40 | % Control (mice; 50% hpbcd, 10 mg/kg): 161% | % Protected [1, 2]: 25%

C=C[C@@]1(O)CC[C@@]2(C)[C@H](CC[C@@H]3[C@@H]2CC[C@]2(C)[C@@H](C(C)=O)CC[C@@H]32)C1 [3β-ethenyl-3α-hydroxy-5β-pregnan-20-one]
pIC50 (GR complex; no unit printed): 7.34 | IMAX (GR complex): 100 | % Control (mice; 50% hpbcd, 10 mg/kg): 151% | % Protected [1, 2]: 87.5%

C#C[C@@]1(O)CC[C@H]2[C@H](CC[C@@H]3[C@@H]2CC[C@]2(C)[C@@H](C(C)=O)CC[C@@H]32)C1 [3β-ethynyl-3α-hydroxy-19-nor-5β-pregnan-20-one]
pIC50 (GR complex; no unit printed): 7.36 | IMAX (GR complex): 93 | % Control (mice; 50% hpbcd, 10 mg/kg): 172% | % Protected [1, 2]: 87.5%

Bis (3α,21-dihydroxy-3β-trifluoromethyl-5β-pregnan-20-one) 21-hemisuccinate
pIC50 (GR complex; no unit printed): 6.72 | IMAX (GR complex): 23 | % Control (mice; 50% hpbcd, 10 mg/kg): 92% | % Protected [1, 2]: 25%

Reference: patent EP0808325B1, “[…] […] SERIES FOR […] GABA RECEPTOR” (priority 1994, dated 1996)
